In US9237747B2, “Herbicidal compositions comprising 4-amino-3-chloro-5-fluoro-6-(4-chloro-2-fluoro-3-methoxyphenyl) pyridine-2-carboxylic acid or a derivative thereof and insecticides” (priority 2013, dated 2016):
Where a name gives a salt, the structure may show the parent alone. Read-outs that look alike come from different tables or passages of the source.

How the values were obtained:
[1] = tested on: IPOHE; format: in vivo, Ipomoea hederacea
Method: (§1) Seeds or nutlets of the desired test plant species were planted in a soil matrix prepared by mixing a loam or sandy loam soil (e.g., 28.6 percent silt, 18.8 percent clay, and 52.6 percent sand, with a pH of about 5.8 and an organic matter content of about 1.8 percent) and calcareous grit in an 80 to 20 ratio. The soil matrix was contained in plastic pots with a volume of 1 quart and a surface area of 83.6 square centimeters (cm^2). […] The plants were grown for 8-22 days in a greenhouse with an approximate 14 hour (h) photoperiod which was maintained at about 29° C. during the day and 26° C. during the night. Nutrients (Peters Excel® 15-5-15 5-Ca 2-Mg and iron chelate) were applied in the irrigation solution as needed and water was added on a regular basis. Supplemental lighting was provided with overhead metal halide 1000-Watt lamps as necessary. The plants were employed for testing when they reached the first through fourth true leaf stage.
(§2) Treatments consisted of the acid or esters of 4-amino-3-chloro-6-(4-chloro-2-fluoro-3-methoxyphenyl)-5-fluoropyridine-2-carboxylic acid (Compound A), each formulated as an SC (suspension concentrate), and various insecticidal components alone and in combination. Forms of compound A were applied on an acid equivalent basis.
(§3) For treatments comprised of formulated compounds, measured amounts of compounds were placed individually in 25 mL glass vials and diluted in a volume of 1.25% volume per volume (v/v) Agri-Dex® crop oil concentrate to obtain 12× stock solutions. […] Application solutions were prepared by adding an appropriate amount of each stock solution (e.g., 1 mL) and diluted to the appropriate final concentrations with the addition of […] of an aqueous mixture of 1.25% (v/v) crop oil concentrate so that the final spray solutions contained 1.25+/−0.05% (v/v) crop oil concentrate.
(§4) As required, additional water and/or 97:3 v/v acetone/DMSO was added to individual application solutions so that the final acetone and DMSO concentrations of the application solutions being compared were 8.1% and 0.25%, respectively.
(§5) All stock solutions and applications solutions were visually inspected for compound compatibility prior to application. Spray solutions were applied to the plant material with an overhead Mandel track sprayer equipped with 8002E nozzles calibrated to deliver 187 L/ha over an application area of 0.503 square meters (m^2) at a spray height of 18 to 20 inches (46 to 50 cm) above average plant canopy height. Control plants were sprayed in the same manner with the solvent blank.
(§6) The treated plants and control plants were placed in a greenhouse as described above and watered by sub-irrigation to prevent wash-off of the test compounds. After approximately 3 weeks, the condition of the test plants as compared to that of the untreated plants was determined visually and scored on a scale of 0 to 100 percent where 0 corresponds to no injury or growth inhibition and 100 corresponds to complete kill.
(§7) Colby's equation was used to determine the herbicidal effects expected from the mixtures (Colby, S. R. Calculation of the synergistic and antagonistic response of herbicide combinations. Weeds 1967, 15, 20-22.).
(§8) The following equation was used to calculate the expected activity of mixtures containing two active ingredients, A and B: Expected=A+B−(A×B/100)

[2] = tested on: ECHCG; format: in vivo, Echinochloa crus-galli
Method: as §1, §2, §3, §4, §5, §6, §7, §8

[3] = tested on: BRAPP; assay: Postemergence foliar-applied weed control, direct-seeded rice (greenhouse); format: in vivo, Brachiaria platyphylla
Excerpt: (§9) Seeds or nutlets of the desired test plant species were planted in a soil matrix prepared by mixing a loam or sandy loam soil (e.g., 28.6 percent silt, 18.8 percent clay, and 52.6 percent sand, with a pH of about 5.8 and an organic matter content of about 1.8 percent) and calcareous grit in an 80 to 20 ratio. The soil matrix was contained in plastic pots with a volume of 1 quart and a surface area of 83.6 square centimeters (cm^2). When required to ensure good germination and healthy plants, a fungicide treatment and/or other chemical or physical treatment was applied. The plants were grown for 8-22 days in a greenhouse with an approximate 14 hour (h) photoperiod which was maintained at about 29° C. during the day and 26° C. during the night. Nutrients (Peters Excel® 15-5-15 5-Ca 2-Mg and iron chelate) were applied in the irrigation solution as needed and water was added on a regular basis. Supplemental lighting was provided with overhead metal halide 1000-Watt lamps as necessary. The plants were employed for testing when they reached the first through fourth true leaf stage.
as §2
(§10) Treatment requirements were calculated based upon the rates being tested, the concentration of active ingredient or acid equivalent in the formulation, and a 12 milliliter (mL) application volume at a rate of 187 liters per hectare (L/ha).
as §3, §4, §5, §6, §7, §8

[4] = tested on: DIGSA; format: in vivo, Digitaria sanguinalis
Method: as §1, §2, §3, §4, §5, §6, §7, §8

[5] = tested on: LEFCH; assay: whole plant or invertebrate; format: in vivo, Leptochloa chinensis
Method: as §1, §2, §3, §4, §5, §6, §7, §8

[6] = tested on: LEFFA; assay: Postemergence foliar-applied weed control, direct-seeded rice (greenhouse); format: in vivo, Leptochloa fascicularis
Excerpt: as §9, §2, §10, §3, §4, §5, §6, §7, §8

[7] = tested on: ECHCO; assay: as above; format: in vivo, Echinochloa colonum
Method: as §1, §2, §3, §4, §5, §6, §7, §8

Molecule: CN(C)C(CSC(N)=O)CSC(N)=O [Cartap Hydrochloride, S,S′-(2-dimethylaminotrimethylene)bis(thiocarbamate), reference compound]
- Visual Weed Control (%) - 22 DAA IPOHE Obs ([1]; 250 g ai/ha alone): 10%
- Visual Weed Control (%) - 22 DAA IPOHE Obs ([1]; 500 g ai/ha alone): 0%
- Visual Weed Control (%) - 22 DAA ECHCG Obs ([2]; 250 g ai/ha alone): 0%
- Visual Weed Control (%) - 22 DAA ECHCG Obs ([2]; 500 g ai/ha alone): 0%

Molecule: CCOP(=S)(OCC)Oc1nc(Cl)c(Cl)cc1Cl [Chlorpyrifos, O,O-diethyl O-3,5,6-trichloro-2-pyridyl phosphorothioate]
- Visual Weed Control (%) - 20 DAA IPOHE Obs ([1]; 180 g ai/ha alone): 10%
- Visual Weed Control (%) - 20 DAA IPOHE Obs ([1]; 360 g ai/ha alone): 10%
- Visual Weed Control (%) - 20 DAA IPOHE Obs ([1]; 720 g ai/ha alone): 0%
- Visual Weed Control (%) - 20 DAA ECHCG Obs ([2]; 180 g ai/ha alone): 0%
- Visual Weed Control (%) - 20 DAA ECHCG Obs ([2]; 360 g ai/ha alone): 0%
- Visual Weed Control (%) - 20 DAA ECHCG Obs ([2]; 720 g ai/ha alone): 0%
- Visual Weed Control (%) - 20 DAA BRAPP Obs ([3]; 180 g ai/ha alone): 0%
- Visual Weed Control (%) - 20 DAA BRAPP Obs ([3]; 360 g ai/ha alone): 0%
- Visual Weed Control (%) - 20 DAA BRAPP Obs ([3]; 720 g ai/ha alone): 0%
- Visual Weed Control (%) - 20 DAA DIGSA Obs ([4]; 180 g ai/ha alone): 0%
- Visual Weed Control (%) - 22 DAA DIGSA Obs ([4]; 180 g ai/ha alone): 0%
- Visual Weed Control (%) - 20 DAA DIGSA Obs ([4]; 360 g ai/ha alone): 0%
- Visual Weed Control (%) - 22 DAA DIGSA Obs ([4]; 360 g ai/ha alone): 0%
- Visual Weed Control (%) - 20 DAA DIGSA Obs ([4]; 500 g ai/ha alone): 0%
- Visual Weed Control (%) - 20 DAA DIGSA Obs ([4]; 720 g ai/ha alone): 0%
- Visual Weed Control (%) - 22 DAA DIGSA Obs ([4]; 720 g ai/ha alone): 0%
- Visual Weed Control (%) - 20 DAA LEFCH Obs ([5]; 180 g ai/ha alone): 0%
- Visual Weed Control (%) - 20 DAA LEFCH Obs ([5]; 360 g ai/ha alone): 0%
- Visual Weed Control (%) - 20 DAA LEFCH Obs ([5]; 500 g ai/ha alone): 0%
- Visual Weed Control (%) - 20 DAA LEFCH Obs ([5]; 720 g ai/ha alone): 0%
- pest or weed control at 720 g/ha ([5]; Dinebra chinensis, post-emergence, 528 h, 720 g ai/ha alone, read-out: Visual Weed Control (%) - 22 DAA LEFCH Obs): 5%
- Visual Weed Control (%) - 22 DAA LEFFA Obs ([6]; 180 g ai/ha alone): 0%
- Visual Weed Control (%) - 22 DAA LEFFA Obs ([6]; 360 g ai/ha alone): 0%
- Visual Weed Control (%) - 22 DAA LEFFA Obs ([6]; 720 g ai/ha alone): 0%
- Visual Weed Control (%) - 20 DAA ECHCO Obs ([7]; 180 g ai/ha alone): 0%
- Visual Weed Control (%) - 20 DAA ECHCO Obs ([7]; 360 g ai/ha alone): 0%
- Visual Weed Control (%) - 20 DAA ECHCO Obs ([7]; 720 g ai/ha alone): 0%

Molecule: CC1(C)[C@H](C(=O)O[C@H](C#N)c2cccc(Oc3ccccc3)c2)[C@@H]1/C=C(\Cl)C(F)(F)F (racemic) [Lambda cyhalothrin]
- Visual Weed Control (%) - 21 DAA IPOHE Obs ([1]; 35 g ai/ha alone): 0%
- Visual Weed Control (%) - 21 DAA ECHCG Obs ([2]; 21 DAA, 35 g ai/ha alone): 0%

Molecule: COP(N)(=O)SC (centres unmarked) [Methamidophos, O,S-dimethyl phosphoramidothioate, reference compound]
- Visual Weed Control (%) - 19 DAA IPOHE Obs ([1]; 112 g ai/ha alone): 0%
- Visual Weed Control (%) - 19 DAA IPOHE Obs ([1]; 224 g ai/ha alone): 0%
- Visual Weed Control (%) - 19 DAA ECHCO Obs ([7]; 112 g ai/ha alone): 0%
- Visual Weed Control (%) - 19 DAA ECHCO Obs ([7]; 224 g ai/ha alone): 0%

Molecule: spinetoram
- Visual Weed Control (%) - 19 DAA LEFCH Obs ([5]; 30 g ai/ha alone): 0%
- Visual Weed Control (%) - 19 DAA LEFCH Obs ([5]; 60 g ai/ha alone): 0%
- Visual Weed Control (%) - 19 DAA LEFCH Obs ([5]; 120 g ai/ha alone): 0%
- Visual Weed Control (%) - 19 DAA ECHCO Obs ([7]; 30 g ai/ha alone): 0%
- Visual Weed Control (%) - 19 DAA ECHCO Obs ([7]; 60 g ai/ha alone): 0%
- Visual Weed Control (%) - 19 DAA ECHCO Obs ([7]; 120 g ai/ha alone): 0%

Molecule: N#Cc1nn(-c2c(Cl)cc(C(F)(F)F)cc2Cl)c(N)c1[S+]([O-])C(F)(F)F [Fipronil, 5-amino-[2,6-dichloro-4-(trifluoromethyl)phenyl]-4-[(1R,S)-(trifluoromethyl)sulfinyl]-1H-pyrazole-3-carbonitrile, reference compound]
- Visual Weed Control (%) - 20 DAA ECHCG Obs ([2]; 50 g ai/ha alone): 0%
- Visual Weed Control (%) - 20 DAA BRAPP Obs ([3]; 50 g ai/ha alone): 0%

Molecule: spinosad [reference compound]
- Visual Weed Control (%) - 21 DAA IPOHE Obs ([1]; 70 g ai/ha alone): 0%
- Visual Weed Control (%) - 21 DAA IPOHE Obs ([1]; 140 g ai/ha alone): 0%
- Visual Weed Control (%) - 21 DAA IPOHE Obs ([1]; 280 g ai/ha alone): 0%
- Visual Weed Control (%) - 21 DAA LEFCH Obs ([5]; 140 g ai/ha alone): 0%
- Visual Weed Control (%) - 21 DAA LEFCH Obs ([5]; 280 g ai/ha alone): 0%

Molecule: CC1(C)C(C=C(Cl)Cl)C1C(=O)OC(C#N)c1cccc(Oc2ccccc2)c1 (racemic) [Cypermethrin, (RS)-α-cyano-3-phenoxybenzyl(1RS)-cis-trans-3-(2,2-dichlorovinyl)-2,2-dimethylcyclopropanecarboxylate, reference compound]
- Visual Weed Control (%) - 22 DAA IPOHE Obs ([1]; 7.5 g ai/ha alone): 0%
- Visual Weed Control (%) - 22 DAA IPOHE Obs ([1]; 22.5 g ai/ha alone): 0%
- Visual Weed Control (%) - 22 DAA IPOHE Obs ([1]; 60 g ai/ha alone): 0%
- Visual Weed Control (%) - 22 DAA ECHCG Obs ([2]; 7.5 g ai/ha alone): 0%
- Visual Weed Control (%) - 22 DAA ECHCG Obs ([2]; 22.5 g ai/ha alone): 0%
- Visual Weed Control (%) - 22 DAA ECHCG Obs ([2]; 60 g ai/ha alone): 0%
- Visual Weed Control (%) - 21 DAA DIGSA Obs ([4]; 15 g ai/ha alone): 0%
- Visual Weed Control (%) - 21 DAA DIGSA Obs ([4]; 30 g ai/ha alone): 0%
- Visual Weed Control (%) - 21 DAA DIGSA Obs ([4]; 60 g ai/ha alone): 0%
- pest or weed control at […] ([5]; Dinebra chinensis, post-emergence, 528 h, 7.5 g ai/ha alone, read-out: Visual Weed Control (%) - 22 DAA LEFCH Obs): 0%
- pest or weed control at 22.5 g/ha ([5]; Dinebra chinensis, post-emergence, 528 h, 22.5 g ai/ha alone, read-out: Visual Weed Control (%) - 22 DAA LEFCH Obs): 0%
- pest or weed control at 60 g/ha ([5]; Dinebra chinensis, post-emergence, 528 h, 60 g ai/ha alone, read-out: Visual Weed Control (%) - 22 DAA LEFCH Obs): 0%
